# Source: PubChem BioAssay AID2842 (Southern Research Institute, 2010)
# Tested on: M. tuberculosis H37Rv growth inhibition
# Experiment: Mycobacterium tuberculosis H37Rv growth inhibition, putative kinase inhibitor library, confirmatory dose response (AID 2842);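 note: bacteria incubated one week before Alamar blue readout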
row,SMILES,IC90 [µg/mL]
1,O=C(CSc1nnc2ccc(-c3cccc([N+](=O)[O-])c3)nn12)Nc1cccc(C(F)(F)F)c1,3.34
2,O=C(NCc1nnc(SCC(=O)N2CCC(Cc3ccccc3)CC2)o1)c1ccco1,25.1
3,Cc1ccc(C)c(-c2nnc(NC(=O)c3ccc(Cl)s3)o2)c1,26.4
4,Cc1ccc(-n2ncc3c(NCc4cccnc4)ncnc32)cc1C,6.03
5,Cc1ccc(C(=O)Nc2nnc(-c3ccncc3)o2)cc1,13.4
6,CCS(=O)(=O)c1cccc(C(=O)Nc2nc3ccc(C(C)C)cc3s2)c1,11.3
7,CC(C)c1ccc(OCC(=O)Nc2nccs2)cc1,6.88
8,CCc1ccc(Cc2cnc(NC(=O)c3c(C)coc3C)s2)cc1,7.42
9,O=C(Nc1nnc(-c2cc(Cl)ccc2Cl)o1)c1ccccc1Br,1.6
10,COc1ccccc1-c1nnc(Nc2nc3ccc(SC)cc3s2)o1,15.9
11,CCN1CCc2c(sc(NC(=O)c3ccccc3)c2-c2nc3ccccc3s2)C1,0.73
12,O=C(CCN1C(=O)c2ccccc2S1(=O)=O)Nc1ccc(Br)cc1,17.5
13,O=C(Nc1nnc(-c2cc(Cl)ccc2Cl)o1)c1cc(-c2ccccc2)nc2ccccc12,1.96
14,O=C(Nc1nnc(-c2cc(Cl)ccc2Cl)o1)c1ccco1,27.5
15,N#C/C(=C\c1c(Oc2ccccc2F)nc2ccccn2c1=O)C(N)=O,11.4
16,CC(C)CCn1c(NCCc2ccccc2)nc2c1c(=O)n(C)c(=O)n2C,11
17,Cc1ccccc1C1C=C(c2cccs2)Nc2nc3ccccc3n21 (stereo not given),13.8
18,Fc1ccc(Nc2nc(Nc3cccc(F)c3)nc3nccnc23)cc1,60.6
19,O=C(c1cccs1)N(CCCn1ccnc1)c1nc2c(F)cc(F)cc2s1,2.38
20,Cc1ccccc1C(=O)N1N=C(c2c(-c3ccccc3)c3cc(Br)ccc3[nH]c2=O)CC1c1ccccc1 (stereo not given),1.68
21,COc1cccc(/C=N/Nc2nc(=O)[nH]nc2C)c1O,0.5
22,O=C(CSCc1ccc(Cl)c(Cl)c1)Nc1ccc(F)cc1,12.9
23,O=C(NNc1nc2ccc(Cl)cc2s1)c1nc2ccccc2s1,3.15

row,SMILES,IC90 [µg/mL]
1,Cc1cc(Cl)cc2sc(N(CCCn3ccnc3)C(=O)c3ccco3)nc12,< 0.2
2,Cc1cc(C)c2sc(NNC(=O)c3ccc(S(=O)(=O)N4CCCCC4)cc3)nc2c1,29.4
3,Cc1cc(Cl)cc2sc(N(CCCn3ccnc3)C(=O)c3cccs3)nc12,1.05
4,CC1CN(c2ncnc3c2c(-c2ccccc2)cn3-c2ccccc2)CC(C)O1 (stereo not given),29.1
5,Cc1ccc(-c2nnc(NC(=O)c3ccc([N+](=O)[O-])o3)o2)c(C)c1,0.69
6,O=C(Nc1nnc(-c2ccc(Br)cc2)o1)c1ccccc1F,4.4
7,O=C(c1ccc(NC2=C(Cl)C(=O)N(Cc3ccccc3)C2=O)cc1)N1CCCCC1,6.24
8,CCOc1cccc2nc(NC(=O)c3ccc(Oc4ccccc4)cc3)sc12,13.7
9,O=C(Nc1nnc(-c2cc(Cl)ccc2Cl)o1)c1ccc(Br)s1,2.65
10,O=C(Nc1nnc(-c2ccc(Br)cc2)o1)c1ccc(Cl)s1,1.87
11,CC(C)(C)c1ccc(C(=O)Nc2nnc(-c3cccnc3)o2)cc1,0.84
12,COc1cccc2sc(N(CCCn3ccnc3)C(=O)c3cccs3)nc12,5.7
13,CCOC(=O)c1csc(Nc2nc3c(SC)cccc3s2)n1,3.13
14,CC1(C)Cc2c(sc(NC(=O)c3ccc(Oc4ccccc4)cc3)c2C(N)=O)C(C)(C)N1,6.22
15,O=C(Nc1ccc(Cl)c(Cl)c1)NC1CC(=O)N(c2cccc(F)c2)C1 (stereo not given),6.41
16,O=C(Nc1nnc(-c2cc(Cl)ccc2Cl)o1)C1=COCCO1,25.7
17,Cc1ccc(-c2nnc(NC(=O)c3cccc(Oc4ccccc4)c3)o2)c(C)c1,25.3
18,Cc1cc(NC(=O)/C=C/c2ccc([N+](=O)[O-])s2)no1,4.04
19,COc1cccc(C(=O)N(CCCn2ccnc2)c2nc3c(C)cccc3s2)c1OC,4.2
20,CCc1cccc2sc(N(CCCn3ccnc3)C(=O)c3cccs3)nc12,0.34
21,CCOc1ccc(NC(=O)c2c(Cl)ccc(Cl)c2Cl)cc1,11.7
22,COC(=O)CSc1ncnc2c1nnn2Cc1ccc(F)cc1,1.55
23,O=C1C(Cl)=C(Nc2ccccc2O)C(=O)N1Cc1ccccc1,5.45

row,SMILES,IC90 [µg/mL]
1,COc1ccc2nc(N3CCCC3)sc2c1,8.36
2,CCCCOc1ccc(C(=O)N2CC(=O)Nc3ccc(Cl)cc3C2c2ccc(F)cc2)cc1 (stereo not given),13.1
3,COc1ccc(Nc2nc(Nc3ccc(C)c(C)c3)nc3nccnc23)cc1,3.93
4,COc1ccc(Nc2nc(Nc3cccc(OC)c3)nc3nccnc23)cc1,9.86
5,CC1CCc2nc(Nc3nc4cc5c(cc4s3)OCO5)sc2C1 (stereo not given),14.4
6,O=C(Nc1nnc(-c2cccs2)o1)C1CCCCC1,26.9
7,O=C(O)c1ccccc1NC1=C(Cl)C(=O)N(c2cccc(Cl)c2)C1=O,21.3
8,O=C(Nc1nnc(-c2ccc(Cl)cc2)o1)C1CCCCC1,5.6
9,O=C(Nc1nnc(-c2cccs2)o1)c1nc2ccccc2s1,2.98
10,COc1ccc2nc(Nc3ccc4nc(C)sc4c3)sc2c1,15.2
11,COc1cc2c(=O)c(C(=O)c3ccc(Cl)cc3)cn(Cc3ccccc3F)c2cc1OC,45
12,O=C(CSc1nnc(-c2cccnc2)o1)N1CCC(Cc2ccccc2)CC1,0.87
13,O=C(Nc1nnc(-c2ccc(F)cc2)o1)c1cccc(C(F)(F)F)c1,11.7
14,COc1cccc(Nc2nc3ccc(OC)cc3s2)c1,23.3
15,COc1ccc2nc(NNC(=O)c3cccc(F)c3)sc2c1,15.8
16,COc1cccc(-c2nnc(NC(=O)c3ccc(Cl)s3)o2)c1,< 0.2
17,Cc1ccc(-c2nnc(NC(=O)c3ccc([N+](=O)[O-])s3)o2)c(C)c1,0.61
18,Cc1ccccc1C(=O)Nc1nnc(-c2cccnc2)o1,50.1
19,CC(C)Oc1ccc(C(=O)Nc2nnc(-c3cc(Cl)ccc3Cl)o2)cc1,13.8
20,CCOC(=O)COc1ccc2cc(-c3ccc(OC)c(OC)c3)c(=O)oc2c1,2.18
21,Cc1ccc2sc(N(CCN(C)C)C(=O)c3cccc4ccccc34)nc2c1C,11.8
22,OCCN1CCN(c2ncnc3c2cnn3-c2ccc(Cl)c(Cl)c2)CC1,14.9
23,N=C1SCC(=O)N1c1ncc(Cc2cccc(Cl)c2)s1,2.11

row,SMILES,IC90 [µg/mL]
1,Cc1c(C)n2c3c(=O)[nH]c(=O)n(C)c3nc2n1CCCNc1ccccc1Cl,25.4
2,O=C1Nc2ccccc2/C1=C/C(=O)c1ccc([N+](=O)[O-])cc1,47.7
3,O=C(Nc1nnc(-c2cccs2)o1)c1cccc(C(F)(F)F)c1,3.48
4,CC(=O)N1CCc2c(sc(NC(=O)c3cccs3)c2C(N)=O)C1,3.21
5,Cc1ccccc1NCCCn1c(C)cn2c3c(=O)[nH]c(=O)n(C)c3nc12,15.4
6,Cc1ccc2c(c1)=C(c1sc(=O)[nH]c1O)C(=O)N=2,22.8
7,CCc1ccc(-c2nnc3c4cc(OC)c(OC)cc4n(Cc4ccccc4F)cc2-3)cc1,8.11
8,O=C(c1cccs1)N(CCCn1ccnc1)c1nc2ccccc2s1,6
9,CCCCCOc1ccc(C(=O)Nc2nnc(-c3ccco3)o2)cc1,8.78
10,O=S(=O)(Nc1cc(Cl)c(O)c2ccccc12)c1ccc(F)cc1,6.28
11,CCCCOc1ccc(C(=O)Nc2nnc(-c3cc(C)ccc3C)o2)cc1,25.4
12,COc1cccc2sc(Nc3nc4ccccc4s3)nc12,3.41
13,Cc1c(C#N)c(N)nc(SCC(=O)c2cc3ccccc3oc2=O)c1C#N,0.42
14,O=C(CCc1ccccc1)Nc1nnc(-c2ccc3c(c2)CCCC3)o1,30
15,O=C(NNc1nc2c(Cl)cccc2s1)c1coc2ccccc2c1=O,11.1
16,Cc1ccc(-c2nnc(SCC(=O)Nc3cc(C)on3)o2)cc1,3.95
17,CCCCn1c(N2CCN(Cc3ccc(Cl)c(Cl)c3)CC2)nc2c1c(=O)[nH]c(=O)n2C,7.15
18,COc1ccccc1Cn1cc2c(-c3ccccc3)nnc-2c2cc(OC)c(OC)cc21,7.59
19,COc1cccc2sc(N(CCCn3ccnc3)C(=O)c3ccc4c(c3)OCCO4)nc12,6.56
20,Cc1c(Cl)ccc2sc(N(CCCn3ccnc3)C(=O)c3ccco3)nc12,0.23
21,COc1cccc(C(=O)Nc2nnc(C3=COCCO3)o2)c1,4.85
22,N#Cc1ccc(C(=O)Nc2nnc(-c3ccc(Cl)cc3)o2)cc1,56.7
23,Nc1ncnc(Sc2nc3ccccc3[nH]2)c1[N+](=O)[O-],17.1

row,SMILES,IC90 [µg/mL]
1,Cc1ccc(CC(=O)Nc2nnc(-c3ccco3)o2)c(C)c1,17.9
2,COc1ccc2nc(Nc3nc4c(OC)cccc4s3)sc2c1,3.38
3,CC(=O)N1CCc2c(sc(NC(=O)c3ccccc3Oc3ccccc3)c2C(N)=O)C1,18.3
4,COc1ccc(-c2nsc(SCC(=O)NCc3ccco3)n2)cc1,< 0.2
5,Cc1ccc(Nc2nc(N3CCCC3)nc3nccnc23)cc1C,3.21
6,COc1cc2c3nnc(-c4ccc(C)c(C)c4)c-3cn(Cc3ccccc3)c2cc1OC,7.35
7,O=C1CN(C(=O)c2cccc3ccccc23)C(c2ccccc2)c2cc(Br)ccc2N1 (stereo not given),8.15
8,Fc1cccc2sc(Nc3nc4cc5c(cc4s3)OCO5)nc12,11.1
9,O=C(Nc1nnc(C2=COCCO2)o1)c1ccc2c(c1)CCCC2,0.44
10,COc1cc(OC)cc(-c2nnc(NC(=O)c3ccc([N+](=O)[O-])o3)o2)c1,9.08
11,Cc1ccc2c(c1)NC(=O)c1cc(NS(=O)(=O)c3ccc4c(c3)OCCO4)ccc1O2,17.5
12,CS(=O)(=O)c1ccc(CC(=O)Nc2nnc(-c3ccc4c(c3)CCCC4)o2)cc1,13.9
13,CCOC(=O)CNC(=O)CSc1ncnc2c1nnn2-c1ccc(OC)cc1,6.79
14,O=C(COc1ccc(Cl)cc1)N1CCN(c2ncnc3c2nnn3Cc2ccccc2)CC1,6.75
15,CCN1C(=O)CCc2cc(NS(=O)(=O)c3ccc(OCC(C)C)cc3)ccc21,18.3
16,CCOC(=O)N1CCc2c(sc(NC(=O)c3ccc(F)cc3)c2C(N)=O)C1,1.89
17,CCCCN1C(=O)c2cccc3c(NC(=O)c4ccc([N+](=O)[O-])s4)ccc1c23,22.7
18,Cc1cc(NC2CCCCC2)n2ncc(-c3ccccc3)c2n1,10.6
19,COc1cccc(C(=O)N(CCCn2ccnc2)c2nc3ccc(C)cc3s2)c1OC,2.63
20,Cc1ccc(C)c2sc(N(CCCn3ccnc3)C(=O)COc3ccccc3)nc12,6.05
21,CCCCc1ccc2[nH]cc(C(=O)O)c(=O)c2c1,14.5
22,Cc1ccc(C)c(-c2nnc(NC(=O)c3ccc(S(=O)(=O)N(C)c4ccccc4)cc3)o2)c1,13.3
23,O=C(Nc1nnc(-c2ccc(Br)cc2)o1)c1cc(Cl)sc1Cl,3.43
